Measured values: US4016176A, “Esters of 4-hydroxy-2,9-dioxatricyclo[4.3.1.0^3,7 ] decanes and processes for their production” (Kali-Chemie Pharma GmbH, priority 1973, dated 1977)

Experiments:
[1] = acute toxicity (LD50) in mice; format: in vivo, mouse; details: mouse, in vivo, mouse
Excerpt: (§1) In the Table 3 which follows are listed results of tests pertaining to the effectiveness of various compounds that are disclosed herein. The results are included in the several columns under letters whose significance is as follows:
(§2) A - lethal dose (LD50) to mice in milligrams per kilogram of body weight of the mouse when administered per os.
(§3) B - lethal dose (LD50) to mice in milligrams per kilogram of body weight of the mouse when administered intraperitoneally.
(§4) A. lethal dose (LD50) to mice in milligrams per kilogram body weight of the mouse when administered per os.
(§5) B. lethal dose (LD50) to mice in milligrams per kilogram body weight of the mouse administered intraperitoneally.
(§6) The values specified in Tables 4 and 5 hereinafter refer to milligrams per kilogram of body weight of the mouse.
(§7) Tests performed in accordance with the procedure described by Campbell and Richter in Acta Pharmacol. et Toxicol., vol. […] This is indicated by the results that are reported in Table 5 in which the headings A and F have the same significance as hereinbefore while the values in the column heading L pertain to the dose in milligrams per kilogram of body weight that was required to produce a lowering of the rectal temperature, which are values indicative of the depressant effect of a compound upon the central nervous system.

mice [2] = test: acute toxicity (LD50) in mice; format: in vivo, mouse; details: for relative toxicity compared with the 4-hydroxy compound (in words): 4β-esters compared with Compound No. 1246; for B - lethal dose (LD50) to mice, intraperitoneally: intraperitoneal; for B - lethal dose (LD50) to mice, intraperitoneally / A - lethal dose (LD50) to mice, per os: Table 3
Excerpt: as §1, §2, §3, §4, §5, §6, §7

mouse [3] = test: ataxia in mice; format: in vivo; details: mouse; for C - ataxia: dose required to produce ataxia in a mouse: Table 3
Excerpt: as §1
C - ataxia: Dose in milligrams per kilogram of body weight required to produce ataxia in a mouse.

mouse [4] = test: sedative effect, comparison of esters with 4-hydroxy compounds; format: in vivo; details: for sedative effect or ataxia relative to the 4-hydroxy compound (in words): 4β-esters compared with Compound No. 1246; for sedative effect relative to the corresponding hydroxy compound (in words): compared with corresponding hydroxy compounds, Compound No. 1561
Excerpt: The effectiveness of the 2,9-dioxatricyclo[4.3.1.0^3,7 ]decanes of the present invention as narcotics is obviously sterospecifically related to the 4αconfiguration. Particularly surprising is the narcotic effect of the esters as compared to the 4-hydroxy compounds. Whereas nearly 300 or even 800 milligrams per kilogram of the 4-hydroxy compounds are required to induce narcosis, the required doses of the carbamates is only at most 100 milligrams per kilogram and their toxicity is in general very low.

mouse [5] = test: prolongation of narcosis produced by hexobarbital in mice; format: in vivo; details: for E - dose which prolongs narcosis produced by hexobarbital in a mouse by a factor of 4: factor of 4, Table 3; for prolongation of narcosis produced by hexobarbital (in words): comparison of epimers
Excerpt: (§8) In the Table 3 which follows are listed results of tests pertaining to the effectiveness of various compounds that are disclosed herein.

mice [6] = test: narcosis (lateral position) in mice; format: in vivo, mouse; details: mouse; for narcosis (in words): comparison of epimers; for ED50: ip, 0.05 h, read-out: D - narcosis (lateral position): dose (ED50) which produces narcosis for 3 minutes in 50% of the mice, intraperitoneal, narcosis for 3 minutes, Table 3
Excerpt: as §8

[7] = acute toxicity in cats, intravenous; details: cat, in vivo, read-out: lethal dose (LD50) for cats
Description: (§9) The toxicity and narcotic effectiveness of this compound were determined in tests with cats and dogs. […] The intravenous administration of a dose equivalent to 5 milligrams per kilogram of body weight to cats produced a narcosis that persisted for 10 minutes, whereas doses of 10 and 15 milligrams per kilogram produced narcoses that persisted for 25 and 60 minutes, respectively.

cats = test: narcosis in cats, intravenous; format: in vivo, cat
Description: as §9

dogs = test: narcosis in dogs, intravenous; format: in vivo, dog; details: Canis lupus familiaris, narcosis for 1 hour, read-out: dose required to produce a narcosis that persisted for 1 hour
Description: In dogs a dose of 17.5 milligrams of the compound per kilogram of body weight administered intravenously was required to produce a narcosis that persisted for 1 hour.

white mice [8] = test: climbing test (Campbell and Richter screening); format: in vivo; details: mouse; Table 4; read-out: J. climbing test (ED50)
Excerpt: (§10) The sedative and hypnotic effectiveness of the compounds of the invention were also ascertained by screening tests with white mice described by Campbell and Richter in Acta Pharmacol. et Toxicol. 25 (1967) page 345. In Table 4 the results of various specific screening tests are listed. These tests were as follows:
as §6

white mice [9] = test: balance bar test (Campbell and Richter screening); format: in vivo; details: mouse; Table 4; read-out: K. balance bar test (ED50)
Excerpt: as §10
K. balance bar test (ED50).
as §6

white mice [10] = test: ptosis test (Campbell and Richter screening); format: in vivo, mouse; details: for dose producing ptosis relative to the 4-hydroxy compound (in words): compared with Compound No. 1561; for F ptosis test: mouse, Table 5
Excerpt: as §10, §6, §7

mouse [11] = test: lowering of the rectal temperature in mice; format: in vivo; details: mouse; Table 5; read-out: L dose required to produce a lowering of the rectal temperature
Excerpt: as §6, §7

[12] = po, per os, Table 3, read-out: A - lethal dose (LD50) to mice, per os
[13] = ip, intraperitoneal, Table 4, read-out: B. lethal dose (LD50) to mice, intraperitoneally
[14] = po, per os, Table 4, read-out: A. lethal dose (LD50) to mice, per os
[15] = po, per os, Table 5, read-out: A lethal dose (LD50) to mice, per os

## CCC(=O)OC1CC2C(C)C3OC(OC)C2C1(C)O3 (stereo not drawn) [compound 2044]
[1]; [12]
  LD50: 1470 mg/kg
Mice [2]
  relative toxicity compared with the 4-hydroxy compound (in words): reduction in the relative toxicity
Mice [2]; mouse
  B - lethal dose (LD50) to mice, intraperitoneally: 436 milligrams per kilogram of bod
Mouse [3]
  C - ataxia: dose required to produce ataxia in a mouse: 147 milligrams per kilogram of bod
Mouse [4]
  sedative effect or ataxia relative to the 4-hydroxy compound (in words): distinct increase in the sedative effect or ataxia

## COC1OC2OC3(C)C(OC(C)=O)CC(C2C)C13 (stereo not drawn) [compound 2045]
[1]; ip, intraperitoneal, Table 3, read-out: B - lethal dose (LD50) to mice, intraperitoneally
  LD50: 1000 mg/kg
[1]; [12]
  LD50: 1470 mg/kg
Mice [2]
  relative toxicity compared with the 4-hydroxy compound (in words): reduction in the relative toxicity
Mouse [3]
  C - ataxia: dose required to produce ataxia in a mouse: 200 milligrams per kilogram of bod
Mouse [5]
  E - dose which prolongs narcosis produced by hexobarbital in a mouse by a factor of 4: 316 milligrams per kilogram of bod
Mouse [4]
  sedative effect or ataxia relative to the 4-hydroxy compound (in words): distinct increase in the sedative effect or ataxia

## CCNC(=O)OC1CC2C(C)C3OC(OC)C2C1(C)O3 (stereo not drawn) [compound 1767]
Mice [2]
  relative toxicity compared with the 4-hydroxy compound (in words): reduction in the relative toxicity
Mice [2]; mouse
  B - lethal dose (LD50) to mice, intraperitoneally: 890 milligrams per kilogram of bod
  A - lethal dose (LD50) to mice, per os: > 1500 milligrams per kilogram of bod
Mouse [3]
  C - ataxia: dose required to produce ataxia in a mouse: 400 milligrams per kilogram of bod
Mouse [4]
  sedative effect or ataxia relative to the 4-hydroxy compound (in words): distinct increase in the sedative effect or ataxia

## COC1OC2OC3(C)C(OC(=O)NC(C)C)CC(C2C)C13 (stereo not drawn) [Compound No. 2057, 4β-(N-Isopropylcarbamyloxy)-3,10-dimethyl-8-methoxy-2,9-dioxatricyclo[4.3.1.0^3,7]decane]
Mice [2]
  relative toxicity compared with the 4-hydroxy compound (in words): reduction in the relative toxicity
Mice [2]; mouse
  B - lethal dose (LD50) to mice, intraperitoneally: 1000 milligrams per kilogram of bod
  A - lethal dose (LD50) to mice, per os: > 1470 milligrams per kilogram of bod
Mouse [3]
  dose required for producing ataxia: 147 milligrams per kilogram of body weight
  C - ataxia: dose required to produce ataxia in a mouse: 147 milligrams per kilogram of bod
Mice [6]
  narcosis (in words): produces neither a narcosis nor a prolongation of narcosis produced by hexobarbital
Mouse [5]
  prolongation of narcosis produced by hexobarbital (in words): produces neither a narcosis nor a prolongation of narcosis produced by hexobarbital
Mouse [4]
  sedative effect or ataxia relative to the 4-hydroxy compound (in words): distinct increase in the sedative effect or ataxia

## C=C1C2OC(OC)C3C1CC(OC(=O)NCC)C3(C)O2 (stereo not drawn) [Compound No. 2076, 4α-(N-Ethylcarbamyloxy)-8-methoxy-3-methyl-10-methylene-2,9-dioxatricyclo[4.3.1.0^3,7]decane]
Mice [2]; mouse
  B - lethal dose (LD50) to mice, intraperitoneally: 527 milligrams per kilogram of bod
  A - lethal dose (LD50) to mice, per os: 1025 milligrams per kilogram of bod
Mice [2]; mouse, 2067 versus 2076
  toxicity of the epimers (in words): substantially the same toxicity
Mouse [3]; 2067 versus 2076
  doses effective in producing ataxia (in words): identical doses are effective in producing ataxia
Mouse [3]
  C - ataxia: dose required to produce ataxia in a mouse: 50 milligrams per kilogram of bod
Mice [6]
  ED50: < 100 mg/kg
  narcosis (in words): produces narcosis
Mouse [5]
  prolongation of narcosis produced by hexobarbital (in words): does not prolong narcosis produced by hexobarbital
[7]
  LD50: 226 mg/kg
cats; 5 mg/kg
  duration of narcosis: 10 min
cats; 10 mg/kg
  duration of narcosis: 25 min
cats; 15 mg/kg
  duration of narcosis: 60 min
dogs
  minimal effective dose: 17.5 mg/kg

## CCCCNC(=O)OC1CC2C(C)C3OC(OC)C2C1(C)O3 (stereo not drawn) [compound 2327]
[1]; [13]
  LD50: 432 mg/kg
[1]; [14]
  LD50: 690 mg/kg
White mice [8]
  ED50: 56 mg/kg
White mice [9]
  ED50: 18 mg/kg

## COC1OC2OC3(C)C(OC(C)=O)CC(C2C)C13 (stereo not drawn) [Compound No. 2080, 4α-Acetoxy-8-methoxy-3,10-dimethyl-2,9-dioxatricyclo[4.3.1.0^3,7]decane]
[1]; [15]
  LD50: 1470 mg/kg
Mice [2]; mouse
  B - lethal dose (LD50) to mice, intraperitoneally: > 1000 milligrams per kilogram of bod
  A - lethal dose (LD50) to mice, per os: > 1470 milligrams per kilogram of bod
Mouse [3]
  C - ataxia: dose required to produce ataxia in a mouse: 50 milligrams per kilogram of bod
White mice [10]
  dose producing ptosis relative to the 4-hydroxy compound (in words): one-fourth or one-half of the dose required of the 4-hydroxy-compound
  F ptosis test: 100 milligrams per kilogram of bod
Mouse [11]
  minimal effective dose: 400 mg/kg
Mouse [4]
  sedative effect relative to the corresponding hydroxy compound (in words): greater sedative effect than the corresponding hydroxy compounds

## CCC(=O)OC1CC2C(C)C3OC(OC)C2C1(C)O3 (stereo not drawn) [compound 2081]
[1]; [15]
  LD50: > 1470 mg/kg
Mice [2]; mouse
  B - lethal dose (LD50) to mice, intraperitoneally: 1379 milligrams per kilogram of bod
  A - lethal dose (LD50) to mice, per os: > 1470 milligrams per kilogram of bod
Mouse [3]
  C - ataxia: dose required to produce ataxia in a mouse: 50 milligrams per kilogram of bod
Mouse [5]
  E - dose which prolongs narcosis produced by hexobarbital in a mouse by a factor of 4: 316 milligrams per kilogram of bod
White mice [10]
  dose producing ptosis relative to the 4-hydroxy compound (in words): one-fourth or one-half of the dose required of the 4-hydroxy-compound
  F ptosis test: 200 milligrams per kilogram of bod
Mouse [11]
  minimal effective dose: 100 mg/kg
Mouse [4]
  sedative effect relative to the corresponding hydroxy compound (in words): greater sedative effect than the corresponding hydroxy compounds

## COC1OC2OC3(C)C(OC(=O)NC4CCCCC4)CC(C2C)C13 (stereo not drawn) [Compound No. 2365, 4α-(N-Cyclohexylcarbamyloxy)-8-methoxy-3,10-dimethyl-2,9-dioxatricyclo[4.3.1.0^3,7]decane]
[1]; [13]
  LD50: 832 mg/kg
[1]; [14]
  LD50: 1470 mg/kg
White mice [8]
  ED50: 150 mg/kg
White mice [9]
  ED50: 137 mg/kg

## CCNC(=O)OC1CC2C(C)C3OC(OC)C2C1(C)O3 (stereo not drawn) [Compound No. 2026, 4α-(N-Ethylcarbamyloxy)-8-methoxy-3,10-dimethyl-2,9-dioxatricyclo[4.3.1.0^3,7]decane]
Mice [2]; mouse
  B - lethal dose (LD50) to mice, intraperitoneally: 297 milligrams per kilogram of bod
  A - lethal dose (LD50) to mice, per os: 518 milligrams per kilogram of bod
Mouse [3]
  C - ataxia: dose required to produce ataxia in a mouse: 68.1 milligrams per kilogram of bod
Mice [6]
  ED50: 100 mg/kg
Mouse [5]
  E - dose which prolongs narcosis produced by hexobarbital in a mouse by a factor of 4: 31.6 milligrams per kilogram of bod
Mouse [4]
  sedative effect relative to the corresponding hydroxy compound (in words): greater sedative effect than the corresponding hydroxy compounds

## C=C1C2OC(OC)C3C1CC(OC(=O)NCCC)C3(C)O2 (stereo not drawn) [compound 2388]
[1]; [13]
  LD50: 516 mg/kg
[1]; [14]
  LD50: 619 mg/kg
White mice [8]
  ED50: 75 mg/kg
White mice [9]
  ED50: 33 mg/kg
